The test system of one series is HL-60 cells. Description: HL-60 cell differentiation-inducing assay (NBT reduction). The series is classed as cell-based, human. The note with it: for EC50: Homo sapiens, HL-60, 96 h, read-out: HL-60 Assay EC50. As to the method: The vitamin D activity of the synthesized lithocholic acid amide derivatives was evaluated in terms of cell differentiation-inducing activity toward human acute promyelocytic leukemia cell line HL-60 [12]. HL-60 cell differentiation was evaluated in terms of the ratio of nitroblue tetrazolium (NBT)-positive cells (Figure 3 and Table 1).
Control cells were treated with the same volume of ethanol alone. 1α,25(OH)2D3 was always assayed at the same time as a positive control. The cells were incubated at 37 °C under 5% CO2 in air for 4 days. The percentage of differentiated cells was determined by nitro-blue tetrazolium (NBT) reduction assay. […] The percentage of cells containing blue-black formazan was determined in a minimum of 200 cells. All experiments were done in triplicate.

Another series concerns the target T1, VDR (Homo sapiens, UniProt P11473).
T1 construct: expressed in transfected cells; host or cells: HEK293
T1 sequence (P11473 1-427): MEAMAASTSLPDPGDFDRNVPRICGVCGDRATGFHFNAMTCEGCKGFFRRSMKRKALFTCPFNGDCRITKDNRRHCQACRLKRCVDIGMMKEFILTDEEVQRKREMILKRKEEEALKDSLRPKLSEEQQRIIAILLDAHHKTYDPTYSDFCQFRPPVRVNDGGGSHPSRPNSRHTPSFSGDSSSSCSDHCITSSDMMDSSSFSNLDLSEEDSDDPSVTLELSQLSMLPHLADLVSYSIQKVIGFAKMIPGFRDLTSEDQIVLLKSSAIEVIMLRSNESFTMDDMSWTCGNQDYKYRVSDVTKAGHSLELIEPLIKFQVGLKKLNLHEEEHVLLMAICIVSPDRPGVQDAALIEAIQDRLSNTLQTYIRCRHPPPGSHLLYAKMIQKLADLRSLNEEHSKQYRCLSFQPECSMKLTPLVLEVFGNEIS
Description: VDR transactivation assay (luciferase reporter) in HEK293 cells. The series is classed as cell-based. The method, then: Human embryonic kidney HEK293 cells (RIKEN Cell Bank, Tsukuba, Japan) were cultured in Dulbecco’s modified Eagle’s medium containing 5% FBS, 100 U/mL penicillin, and 0.1 mg/mL streptomycin (Nacalai Tesque, Kyoto, Japan). Transfections used 15 ng of pCMX-hVDR, 50 ng of TK-Spp × 3-LUC reporter plasmid, and 10 ng of pCMX-β-galactosidase for each well of a 96-well plate, and were performed by the calcium phosphate coprecipitation assay as described previously. Eight hours after transfection, test compounds were added. Cells were harvested after 16–24 h and were assayed for luciferase and β-galactosidase activity using a luminometer and a microplate reader (Molecular Devices, Sunnyvale, CA, USA). Luciferase data were normalized to the internal β-galactosidase control. All experiments were done in triplicate.
(A reporter such as luciferase makes a cellular process visible.)

The nature of series [1]: preliminary pharmacokinetics in mice (data not shown). The series is classed as in vivo. The following applies: preliminary results.
Details of series [2]: method as in PMID 33853023. The following applies: cited from earlier work.
Series [3] deals with T2, rat VDR LBD (residues 116–423, Δ165–211) (rat, UniProt P13053 116-423, Δ165–211).
T2 construct: Cloned in pET14b; tag removed by thrombin digestion; also called rVDR LBD; source: Escherichia coli C41, purified (Ni-NTA, SP-Sepharose, thrombin digestion, gel filtration); not shown: His6, N-terminal, cleaved
T2 sequence (looked up): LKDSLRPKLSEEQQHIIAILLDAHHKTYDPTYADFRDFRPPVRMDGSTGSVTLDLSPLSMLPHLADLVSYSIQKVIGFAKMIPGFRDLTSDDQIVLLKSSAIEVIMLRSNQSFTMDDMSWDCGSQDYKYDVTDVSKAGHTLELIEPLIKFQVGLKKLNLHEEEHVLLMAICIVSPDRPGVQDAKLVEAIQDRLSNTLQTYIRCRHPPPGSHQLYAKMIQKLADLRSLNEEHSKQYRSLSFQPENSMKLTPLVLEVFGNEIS
Description: crystal structure; VDR LBD with about 10 equiv of ligand 7b and coactivator peptide (25 mM Tris-HCl, pH 8.0; 50 mM NaCl; 10 mM DTT; 0.02% NaN3); vapor diffusion, 0.2 M potassium citrate tribasic monohydrate, 20% (w/v) PEG3350, 20 °C; 1.94 Å. The following applies: both partners purified.

The mark [4] stands for this setting: ratio of NBT-positive cells, 4 days incubation, 'Inactive' = no or week active at the concentrations below 1 μM.
The mark [5] stands for this setting: HEK293 cells transfected with pCMX-hVDR and TK-Spp×3-LUC reporter, 'Inactive' = no or week active at the concentrations below 1 μM.

Read-outs that look alike come from different tables or passages of the source.

Usually EC50 stands for the concentration giving half of the maximal effect. Regarding `C=C1/C(=C\C=C2/CCC[C@]3(C)[C@@H]([C@H](C)CCCC(C)(C)O)CC[C@@H]23)C[C@@H](O)C[C@@H]1O` [1α,25(OH)2D3 (1), 1α,25-Dihydroxyvitamin D3, reference compound], in the series on HL-60 cells, the EC50 worked out at 740 pM.

Consider `C[C@H](CCC(=O)O)[C@H]1CC[C@H]2[C@@H]3CC[C@@H]4C[C@H](CC(C)(C)O)CC[C@]4(C)[C@H]3CC[C@]12C` [Compound 3], for which the EC50 in the series on HL-60 cells (setting [4]) amounted to 1010 pM; at VDR (setting [5]) it was 83 pM. Further, the “elimination from the serum” value in series [1] is “eliminated very quickly”. The “calcemic activity compared with 1α,25(OH)2D3 (1)” value in series [2] is “lower calcemic activity than 1”; in series [2] (listed as 3 (Dcha-20)) it was “lower calcemic activity”.

In the case of `C[C@H](CCC(N)=O)[C@H]1CC[C@H]2[C@@H]3CC[C@@H]4C[C@H](CC(C)(C)O)CC[C@]4(C)[C@H]3CC[C@]12C` [Compound 4a], the EC50 came to 440 pM in the series with HL-60 cells (setting [4]) and 120 pM at VDR (setting [5]).

For the molecule `CNC(=O)CC[C@@H](C)[C@H]1CC[C@H]2[C@@H]3CC[C@@H]4C[C@H](CC(C)(C)O)CC[C@]4(C)[C@H]3CC[C@]12C` [Compound 4b], the “HL-60 Assay EC50” value with HL-60 cells (setting [4]) is “Inactive ^a”. At VDR (setting [5]), this molecule showed an EC50 of 960 pM.

Regarding `C[C@H](CCC(=O)NO)[C@H]1CC[C@H]2[C@@H]3CC[C@@H]4C[C@H](CC(C)(C)O)CC[C@]4(C)[C@H]3CC[C@]12C` [Compound 5a], the EC50 in the series on HL-60 cells (setting [4]) is 1180 pM; on VDR (setting [5]), 140 pM.

On to `CONC(=O)CC[C@@H](C)[C@H]1CC[C@H]2[C@@H]3CC[C@@H]4C[C@H](CC(C)(C)O)CC[C@]4(C)[C@H]3CC[C@]12C` [Compound 5b], for which the EC50 worked out at 1450 pM in the series with HL-60 cells (setting [4]) and 140 pM at VDR (setting [5]).

On to `C[C@H](CCC(=O)NC#N)[C@H]1CC[C@H]2[C@@H]3CC[C@@H]4C[C@H](CC(C)(C)O)CC[C@]4(C)[C@H]3CC[C@]12C` [Compound 6], for which the results for the EC50 in the series on HL-60 cells (setting [4]) and on VDR (setting [5]) were 320 pM and 100 pM, respectively.

As for `C[C@H](CCC(=O)NCC(=O)O)[C@H]1CC[C@H]2[C@@H]3CC[C@@H]4C[C@H](CC(C)(C)O)CC[C@]4(C)[C@H]3CC[C@]12C` [Compound 7a], the EC50 in the series on HL-60 cells (setting [4]) came out at 2030 pM.

`C[C@H](CCC(=O)NCCC(=O)O)[C@H]1CC[C@H]2[C@@H]3CC[C@@H]4C[C@H](CC(C)(C)O)CC[C@]4(C)[C@H]3CC[C@]12C` [Compound 7b]: the EC50 in the series on HL-60 cells (setting [4]) was determined as 450 pM; on VDR (setting [5]), 890 pM.

For `C[C@H](CCC(=O)NCCCC(=O)O)[C@H]1CC[C@H]2[C@@H]3CC[C@@H]4C[C@H](CC(C)(C)O)CC[C@]4(C)[C@H]3CC[C@]12C` [Compound 7c], the results for the EC50 in the series with HL-60 cells (setting [4]) and on VDR (setting [5]) were 640 pM and 81 pM, respectively.

Regarding `C[C@H](CCC(=O)NCS(=O)(=O)O)[C@H]1CC[C@H]2[C@@H]3CC[C@@H]4C[C@H](CC(C)(C)O)CC[C@]4(C)[C@H]3CC[C@]12C` [Compound 8a], the EC50 in the series on HL-60 cells (setting [4]) came out at 18500 pM.

In the case of `C[C@H](CCC(=O)NCCS(=O)(=O)O)[C@H]1CC[C@H]2[C@@H]3CC[C@@H]4C[C@H](CC(C)(C)O)CC[C@]4(C)[C@H]3CC[C@]12C` [Compound 8b], in the series on HL-60 cells (setting [4]), the EC50 was determined as 6560 pM.

For the molecule `C[C@H](CCC(=O)O)[C@H]1CC[C@H]2[C@@H]3CC[C@@H]4C[C@H](O)CC[C@]4(C)[C@H]3CC[C@]12C` [LCA (2), Lithocholic acid], in the series with HL-60 cells (setting [4]), the “HL-60 Assay EC50” value is “Inactive ^a”. Further, at VDR (setting [5]), the “Transactivation Assay EC50” value is given as “Inactive ^a”. On VDR (HEK293 cells, LCA: at the concentration below 1 μM), the “VDR transactivation activity (in words)” value is listed as “did not show the activity”.

B1: coactivator peptide (H2N-KNHPMLMNLLKDN-CONH2) derived from DRIP205 (peptide)
peptide: H-KNHPMLMNLLKDN-NH2
notes: also called MED1 peptide; source: synthetic peptide
As to B1, the binding result in series [3] is listed as “binds”.

Values taken from publication PMC8773473, “Lithocholic Acid Amides as Potent Vitamin D Receptor Agonists” (Biomolecules, 2022).
